These results are taken from patent US12582696B2, “Debaryomyces species as an indicator of non-healing ulcers in Crohn's disease” (Washington University, priority 2019, dated 2026).

For data set [1], the system named is PGE2. As to the kind of experiment: wound PGE2 levels in VNAM administered, biopsy injured mice. It counts as in vivo. The following applies: day 6 post-injury, NS-398 vs vehicle, p<0.01. As to the method: Antibiotic-treated (VNAM) mice received the following cocktail for 4 weeks prior to biopsy injury until the day of sacrifice in drinking water: 0.5 g/L Vancomycin, 1 g/L Neomycin, 1 g/L Ampicillin, 1 g/L Metronidazole, and 1 g/L Kool-aid. Control mice received Kool-aid alone. Mice were treated with VNAM in the following figures: FIG. 8A-F, FIG. 9A-E, FIG. 12A-D, FIG. 13, FIG. 14, and FIG. 19A. […]

Data set [2] concerns mucosal wounds in the distal colon of mice. The data set is described as follows: colonic biopsy injury model, mucosal wound repair in VNAM-treated mice. It counts as in vivo. The following applies: day 12 post-injury. An excerpt: To test the role of microbes in mucosal wound repair, a biopsy injury model was used where the timing and site of injuries are known in each experiment. Wound repair in this model occurs in distinct phases. Barrier re-establishment begins immediately upon injury and lasts for 4 days, and is characterized by the formation of wound associated epithelial (WAE) cells that cover the denuded mucosa. Wound channel formation phase (day 4-day 8), involves extensive proliferation of epithelial cells in crypts adjacent to the wound, forming channels that emanate towards the center of the wound. These two phases culminate in the formation of new crypts that is complete within 12 days post-injury.
C57BL6 WT were purchased from Jackson Laboratories (Bar Harbor, ME) or Taconic Biosciences and acclimatized in a specific pathogen-free facility for 1 week before conducting any experiment. […]
(§1) For hematoxylin and eosin (H&E) staining, wounds were collected and embedded in optimum cutting temperature (OCT) formulation (Thermo Fisher Scientific), and 5 μm frozen sections were obtained using a cryostat. […] Images were analyzed using Olympus CellSens Standard imaging software to measure the wound bed length defined as the distance between the two farthest crypts in the center of the wound bed. 2-3 wounds per mouse were analyzed and wound bed lengths were averaged to obtain one value per mouse. […]

Data set [3] has as its system fungi. The data set is described as follows: fungi in colonic wounds of biopsy-injured mice (ITS qPCR, anti-fungal antibody staining, ITS sequencing, SDA culture). The conditions noted are these: VNAM-treated mice; amphotericin B orally once daily from 3 days before injury to day 6 post-injury. It counts as in vivo. As to the method:
Quantitative PCR was performed on the mice of Ex. 4 to identify fungal microbiota within the intestinal wounds. About three fecal pellets or 10-50 mg samples of intestinal tissue were resuspended in Tris buffer supplemented with 1000 U/ml of lyticase (Sigma), 1 mM EDTA, and 0.2% β-mercaptoethanol (Sigma). DNA was extracted using either the DNeasy PowerLyzer PowerSoil kit (Qiagen) or DNA mini stool extraction kit (Qiagen) according to manufacturer's instructions.
Quantitative PCR was performed using SYBR Green (Roche) or SYBR Green Jumpstart Taq Ready mix (Sigma) on an Eppendorf Mastercycler (Eppendorf) using the following primers as described previously (23, 42, 52)—Saccharomyces cerevisiae: forward (5′-[…]-3′, SEQ ID NO:3), reverse (5′-[…]-3′, SEQ ID NO:4), Candida tropicalis: forward (5′-[…]-3′, SEQ ID NO:5), reverse (5′-[…]-3′, SEQ ID NO:6), Debaryomyces hansenii: forward (5′-[…]—3′, SEQ ID NO:7), reverse (5′-[…]-3′, SEQ ID NO:8) and ITS1-2: forward (5′-[…]-3′, SEQ ID NO:9), reverse (5′-[…]-3′, SEQ ID NO:10). The following conditions were used: 94° C. for 10 minutes, followed by 40 cycles of 94° C. for 30 seconds, 55° C. for 30 seconds, and 72° C. for 2 minutes, ending with 72° C. for 30 minutes. […]

In data set [4] the test system is D. hansenii. As to the kind of experiment: biopsy injury model in WT mice gavaged with D. hansenii CDA1 (human clinical isolate). Type of data set: in vivo. The conditions noted are these: WT mice gavaged with D. hansenii CDA1 with or without amphotericin B; day 12 post-injury. As to the method: For inoculation experiments, yeasts were expanded in Sabouraud dextrose agar (SDA) for 2-4 days at 30° C. prior to gavage. Mice were gavaged with pure culture of D. hansenii (obtained from the wounds of antibiotic-treated mice or inflamed tissues of Crohn's disease) or Saccharomyces cerevisiae (ATCC) at ˜10^6 CFU/mouse, unless otherwise stated, in 150 μl of PBS. Controls received PBS only. For all inoculation experiments, gavage occurred 2 days before injury, on the day of injury, and 2, 4, and 6 days post-injury unless otherwise stated.
To ascertain whether human clinical isolates of D. hansenii were capable of inducing repair defects, the following experiments were conducted. WT mice were gavaged with D. hansenii CDA1 (Table 3) using methods similar to those described above. The CDA isolate was associated with impaired crypt regeneration in the biopsy injury model, and this effect was reversed by amphotericin B treatment (FIG. 11G, I).

Data set [5] concerns mucosal wounds in the distal colon of mice. As to the kind of experiment: biopsy injury model in WT mice without VNAM or D. hansenii gavage. The following applies: amphotericin B in the absence of D. hansenii gavage and VNAM; day 12 post-injury. It counts as in vivo.
From the text: C57BL6 WT were purchased from Jackson Laboratories (Bar Harbor, ME) or Taconic Biosciences and acclimatized in a specific pathogen-free facility for 1 week before conducting any experiment. Biopsy forceps and a miniaturized colonoscope system (Karl Storz) were used to create mucosal wounds in the distal colon of mice as described previously. Briefly, mice were anesthetized using ketamine/xylazine and stool pellets were removed from the colon by flushing with PBS. Next, 3 French biopsy forceps were inserted into the colon and 3-5 thickness areas of mucosa and submucosa were removed under the guidance of an endoscopy camera. Biopsy injured mice were euthanized, and wounds were collected on days 4, 6, 8, and 12 to evaluate healing. Biopsy injury was performed by investigators blinded to the treatments.
as §1

For data set [6], the system named is Debaryomyces sp. As to the kind of experiment: mini screen with known water-soluble antifungals (MIC, dose-response). It counts as cell-based.

Values after ≈ are worked out from the molar mass of the structure shown.

Consider `CS(=O)(=O)Nc1ccc([N+](=O)[O-])cc1OC1CCCCC1` [NS-398], for which, in data set [1], the “wound PGE2 levels” value is reported as “ablation of PGE2”. Also, the “wound bed length, NS-398 vs vehicle” value in data set [2] (VNAM pre-treated mice, NS-398 2.5 mg/kg i.p. twice daily days 4-10) is listed as “not significant”.
With `C[C@@H]1[C@H](O)[C@@H](C)/C=C/C=C/C=C/C=C/C=C/C=C/C=C/[C@H](O[C@@H]2O[C@H](C)[C@@H](O)[C@H](N)[C@@H]2O)C[C@@H]2O[C@](O)(C[C@@H](O)C[C@@H](O)[C@H](O)CC[C@@H](O)C[C@@H](O)CC(=O)O[C@H]1C)C[C@H](O)[C@H]2C(=O)O` [amphotericin B], the “fungal antigen detection in the wounds” value in data set [3] is on record as “reduced fungal antigen detection”. In addition, the “impaired crypt regeneration caused by D. hansenii CDA1 (wound bed length)” value in data set [4] is reported as “reversed”. Moreover, the “repair of WT mice (wound bed length)” value in data set [5] was “did not demonstrate any obvious defects in repair”. For the same molecule, the “crypt regeneration (wound bed length)” value in data set [2] (VNAM-treated mice, amphotericin B orally) was “reversed the crypt regeneration defects”.
Turning to `CC[C@H](C)C[C@H](C)CCCCCCCCC(=O)N[C@H]1C[C@@H](O)[C@@H](NCCN)NC(=O)[C@@H]2[C@@H](O)CCN2C(=O)[C@H]([C@H](O)CCN)NC(=O)[C@H]([C@H](O)[C@@H](O)c2ccc(O)cc2)NC(=O)[C@@H]2C[C@@H](O)CN2C(=O)[C@H]([C@@H](C)O)NC1=O` [caspofungin], the lowest concentration to inhibit growth in data set [6] (Debaryomyces) (MIC) was 0.62 µg/mL (≈ 0.567 µM). Also, the “effectiveness compared to azoles in the antifungal screen” value in data set [6] (against Debaryomyces sp., water-soluble antifungals) was “most effective at lowest concentrations”.
